This note sets out measurements from patent US20080171737A1 (Wyeth, priority 2006, published 2008).

Experiment [1] addresses T1, human hNET (Homo sapiens, UniProt P23975).
T1 construct: expressed in transfected cells; host or cells: MDCK-Net6 (MDCK cells stably transfected with hNET)
Briefly: Functional norepinephrine reuptake assay, Procedure A (50,000 cells/well). It is filed as cell-based. The conditions noted are these: MDCK-Net6 cells, 50,000 cells/well; for IC50: 16 nM 3H-norepinephrine, read-out: Procecedure A NE Uptake IC50. The method, then:
For screening, 25 μl aliquots of compound solution at a 1 μM or 10 μM final concentration was delivered directly to cells.
For IC50 determinations, stock compounds were prepared at 10 mM from powder. The stock solution was diluted according to compound testing range. Typically, the compound testing range was from 6 nM to 6 μM by half log dilutions. On the day of assay, 25 μl of compound solution at the specified concentrations were added to the plates containing cells. A DMSO stock of desipramine was prepared at 10 mM in DMSO and diluted for a final concentration of 20 μM to determine the non-specific reuptake.
MDCK-Net6 cells, stably transfected with human hNET (Pacholczyk, 1991), were maintained in growth media [high glucose DMEM (Gibco Cat. 11995), 10% FBS (dialyzed, heat-inactivated, Sigma, dialysed, heat inactivated, Lot# K0922 or equivalent) 1xPen/Strep, and 500 μg/ml G418 (Gibco Cat. 10131)]. Cells were plated at 300,000/T75 flask and cells split twice weekly.
Cells were plated at 50,000 cells/well (Procedure A) or 6,000 cells/well (Procedure B) on day 1 in BD Falcon Microtest 96-well sterile cell culture plates, Optilux White/Clear Bottom TC plate (VWR; # 62406-466 or equivalent) in growth media and maintained in a cell incubator (37° C., 5% CO2). On Day 2, cells were removed from the cell incubator and the growth media is replaced by 200 μl of assay buffer (25 mm HEPES 120 mM NaCL; 5 mM KCl; 2.5 mM CaCl2; 1.2 mM MgSO4; 2 mg/ml glucose (pH 7.4, 37° C.)) containing 0.2 mg/ml ascorbic acid and 1 μM parglyine. For screening, 25 μl of compound in 4% DMSO was added directly to each well and the plate was incubated for 5 minutes (37° C.). To initiate the norepinephrine reuptake, 16 nM (final concentration) of ^3H norepinephrine (specific activity; 40-80 Ci/mmol) in assay buffer was delivered in 25 μl aliquots to each well, and the plates were incubated for 5 min at 37° C. The reaction is aspirated from the plate and the cells washed with 250 μl of 50 mM Tris Buffer (4° C.). The plates were left to dry for 1 hour. The cells were lysed using 0.25 M NaOH solution then placed on a shake table and vigorously shaken for 10 minutes. After cell lysis, 100 μl of Microscint 20 (PerkinElmer; #87-051101) was added to the plates and the plates were sealed with film tape and replaced on the shake table for a minimum of 10 minutes. The plates were counted in a TopCount counter (PerkinElmer).
For screening single point determinations, each compound plate contained at least 3 control wells (maximum NE reuptake determinant) and 3 non-specific wells determined by adding 20 μM of desipramine (minimum NE reuptake determinant). Determination of active compounds was calculated using a Microsoft Excel spread sheet applying the following formula:
% inhibition=[1−((mean cpm test compound wells−mean cpm non-specific wells)/(mean cpm control wells−mean cpm non-specific wells))]×100
For IC50 determination, raw cpm values were generated in a data file from the TopCount counter. The data was organized using the Microsoft Excel and transferred into PRIZM graphing and statistical program, which calculated the estimated IC50 value. Calculation of IC50 values was made using non-linear regression analysis with a sigmoidal dose response with variable slope. The statistical program used wells containing ^3H norepinephrine only as the maximal NE reuptake determinant and wells containing ^3H norepinephrine plus 20 μM desipramine (AHR-9543) as the minimal NE reuptake determinant (non-specific determinant). Estimation of the IC50 value was completed on a log scale and the line was fit between the maximal and minimal NE reuptake values.

In experiment [2] the target is T1, human hNET. Briefly: Functional norepinephrine reuptake assay, Procedure B (6,000 cells/well). The conditions noted are these: MDCK-Net6 cells, 6,000 cells/well, 16 nM 3H-norepinephrine; read-out: Procedure B hNET uptake IC50. The format is cell-based. The method in brief:
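MDCK cells stably expressing human NET, 6,000 cells/well, in HEPES-buffered saline pH 7.4 with ascorbic acid and 1 μM pargyline; compound preincubated 5 min at 37° C. ^3H norepinephrine uptake counted by scintillation; non-specific defined with 20 μM desipramine. IC50 from variable-slope sigmoidal nonlinear fit.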

In general, IC50 refers to the midpoint of a concentration-inhibition curve.

T1 sequence (P23975 whole entry): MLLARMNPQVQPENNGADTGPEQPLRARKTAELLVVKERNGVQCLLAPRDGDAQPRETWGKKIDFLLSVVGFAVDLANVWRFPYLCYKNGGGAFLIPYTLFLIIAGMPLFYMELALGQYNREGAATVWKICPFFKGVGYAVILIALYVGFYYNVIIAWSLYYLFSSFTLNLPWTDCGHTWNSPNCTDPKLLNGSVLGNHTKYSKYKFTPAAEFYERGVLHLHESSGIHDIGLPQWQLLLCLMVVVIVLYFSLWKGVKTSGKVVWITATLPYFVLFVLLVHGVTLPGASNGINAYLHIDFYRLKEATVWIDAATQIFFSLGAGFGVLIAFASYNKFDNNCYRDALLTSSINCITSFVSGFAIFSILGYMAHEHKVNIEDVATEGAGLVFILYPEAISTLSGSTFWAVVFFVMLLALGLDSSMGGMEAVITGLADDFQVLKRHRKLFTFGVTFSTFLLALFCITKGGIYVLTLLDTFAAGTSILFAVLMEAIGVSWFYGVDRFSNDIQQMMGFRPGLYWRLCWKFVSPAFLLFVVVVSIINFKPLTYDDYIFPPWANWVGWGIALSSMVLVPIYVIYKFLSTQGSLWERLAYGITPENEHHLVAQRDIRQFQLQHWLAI

As for `CNCCCC1Cc2ccccc2N(c2ccccc2)S1(=O)=O` (stereo not shown) [Example 1, 3-(2,2-dioxido-1-phenyl-3,4-dihydro-1H-2,1-benzothiazin-3-yl)-N-methylpropan-1-amine], the figures for the IC50 in experiment [1] and in experiment [2] were 33.5 nM and 18.5 nM, respectively.

With `O=S1(=O)C(CCCN2CCCC2)Cc2ccccc2N1c1ccccc1` (stereo not shown) [Example 6, 1-phenyl-3-(3-pyrrolidin-1-ylpropyl)-3,4-dihydro-1H-2,1-benzothiazine 2,2-dioxide], the IC50 in experiment [1] turned out to be 133 nM.

Consider `O=S1(=O)C(CCCNCc2ccccc2)Cc2ccccc2N1c1ccccc1` (stereo not shown) [Example 7, N-benzyl-3-(2,2-dioxido-1-phenyl-3,4-dihydro-1H-2,1-benzothiazin-3-yl)propan-1-amine], for which, in experiment [1], the 50% inhibitory concentration (IC50) came to 3010 nM.

`O=S1(=O)C(CCCNC2CCCCC2)Cc2ccccc2N1c1ccccc1` (stereo not shown) [Example 8, N-[3-(2,2-dioxido-1-phenyl-3,4-dihydro-1H-2,1-benzothiazin-3-yl)propyl]cyclohexanamine]: the “Procedure A [3H] NE Uptake Displacement %” value in experiment [1] (Conc 2000 nM) worked out at 17%.

`CNCCCC1Oc2ccccc2N(c2ccccc2)S1(=O)=O` (stereo not shown) [Example 12, 3-(2,2-dioxido-1-phenyl-1H-4,2,1-benzoxathiazin-3-yl)-N-methylpropan-1-amine]: the concentration for half-maximal inhibition (IC50) stood at 33.1 nM in experiment [1] and 0.7 nM in experiment [2].
